Data from publication PMC9964635, “Bio-Oriented Synthesis and Molecular Docking Studies of 1,2,4-Triazole Based Derivatives as Potential Anti-Cancer Agents against HepG2 Cell Line” (Pharmaceuticals, 2023).
Converted amounts (≈) assume the structure as drawn.

Columns and labels:
HepG2 cell line = test: MTT assay, cell viability against HepG2; type: cell-based; conditions: Homo sapiens; for inhibition at 3.125 µg/mL / inhibition at 6.25 µg/mL / inhibition at 12.5 µg/mL / inhibition at 25 µg/mL / inhibition at 50 µg/mL / inhibition at 100 µg/mL / inhibition at 200 µg/mL: HepG2; for IC50: HepG2, MTT, 48 h
Description: The anti-hepatocellular activity of afforded N-arylated 1,2,4-triazole coupled acetamides (7a–f) was evaluated via MTT assay and these structural hybrids were screened against a liver cancer HepG2 cell line.
The cell viability of all of the compounds was further evaluated using various concentrations ([…]) to test the dose response and % inhibition relationship as shown in Table 2.
Human HepG2 liver cancer cell lines were cultured by Dulbecco’s modified Eagle’s medium. It is composed of 100 μg/mL streptomycin, 100 units/mL penicillin, and 10% FBS. A humidified atmosphere was provided for incubation at 37 °C with 5% CO2. The anti-hepatocellular therapeutic potential of triazole-based scaffolds was evaluated by dissolving its different concentrations in 0.05% DMSO.
An MTT assay was applied for evaluation of cell viability against the HepG2 cell line. In short, different concentrations of new triazole-based scaffolds were incubated with HepG2 cell lines for 48 h. After incubation, 5 mg/mL of 10 µL MTT solution was added in each plate and they were further incubated at 37 °C for 4 h. The percentage of cell viability was calculated at 490 nm after the addition of 150 μL DMSO into a microplate reader (Thermo Scientific, Waltham, MA, USA).

[1] = no reference given; cited from earlier work
[2] = Hemolytic activity, Triton-X-100 as standard; conditions: relative to Triton-X-100
Source text: Hemolytic activity was investigated by the reported method using Triton-X-100 as a standard. Molecule 7f also presented very low toxicity at 1.19 ± 0.02 relative to reference Triton-X-100. All of the other compounds had moderately good hemolytic activity.
Hemolytic activity was investigated by the reported method using Triton-X-100 as standard.

Compound | inhibition at 3.125 µg/mL (HepG2 cell line) [%] | inhibition at 6.25 µg/mL (HepG2 cell line) [%] | inhibition at 12.5 µg/mL (HepG2 cell line) [%] | inhibition at 25 µg/mL (HepG2 cell line) [%] | inhibition at 50 µg/mL (HepG2 cell line) [%] | inhibition at 100 µg/mL (HepG2 cell line) [%] | inhibition at 200 µg/mL (HepG2 cell line) [%] | IC50 (HepG2 cell line) [µg/mL] | melting point [°C] | bioavailability [1] | Hemolytic Activity (Mean% ± S.D) [2] [%] | Hemolytic Activity (Mean% ± S.D) ([2]; listed as Triton X100) [%]
Cc1ccccc1NC(=O)CSc1nnc(C(C)c2ccc(CC(C)C)cc2)n1C (stereo not shown) [Compound 7a, N-(2-Methylphenyl)-2-((5-(1-(4-isobutylphenyl)ethyl)-4-methyl-4H-1,2,4-triazol-3-yl)thio)Acetamide] | 11.6 | 21.4 ± 6.24 | 27.7 ± 6.46 | 64 ± 1.67 | 75.2 ± 5.99 | 88.17 ± 0.26 | 89.4 ± 0.34 | 20.7 (≈ 48.9 µM) | 122 to 124 | – | – | –
Cc1cc(Br)ccc1NC(=O)CSc1nnc(C(C)c2ccc(CC(C)C)cc2)n1C (stereo not shown) [Compound 7b, N-(4-Bromo-2-Mthylphenyl)-2-((5-(1-(4-Isobutylphenyl)Ethyl)-4-Methyl-4H-1,2,4-Triazol-3-yl)Thio)Acetamide] | 10.3 | 24.8 ± 4.62 | 25.2 ± 4.67 | 31.9 ± 0.3 | 88.6 ± 1.11 | 89.4 ± 0.91 | 89.5 ± 0.06 | 33.6 (≈ 66.9 µM) | 122 to 124 | – | – | –
CCc1ccc(NC(=O)CSc2nnc(C(C)c3ccc(CC(C)C)cc3)n2C)cc1 (stereo not shown) [Compound 7c, N-(4-Ethylphenyl)-2-((5-(1-(4-Isobutylphenyl)Ethyl)-4-Methyl-4H-1,2,4-Triazol-3-yl)Thio)Acetamide] | 15.4 ± 2.01 | 17.4 ± 1.32 | 19.1 ± 1.25 | 22.8 ± 0.29 | 73.7 ± 15.5 | 78.8 ± 10.8 | 87.51 ± 0.2 | 39 (≈ 89.3 µM) | 100 to 102 | – | – | –
CC(C)Cc1ccc(C(C)c2nnc(SCC(=O)Nc3ccccc3Cl)n2C)cc1 (stereo not shown) [Compound 7d, N-(2-Chlorophenyl)-2-((5-(1-(4-Isobutylphenyl)Ethyl)-4-Methyl-4H-1,2,4-Triazol-3-yl)Thio)Acetamide] | 14.3 ± 4.27 | 17.3 ± 1.4 | 19.1 ± 17.7 | 19.5 ± 1.44 | 76.7 ± 5.63 | 78.33 ± 0.78 | 87.7 ± 0.18 | 39.7 (≈ 89.5 µM) | 123 to 125 | – | – | –
CC(C)Cc1ccc(C(C)c2nnc(SCC(=O)Nc3ccccc3)n2C)cc1 (stereo not shown) [Compound 7e, N-(Phenyl)-2-((5-(1-(4-Isobutylphenyl)Ethyl)-4-Methyl-4H-1,2,4-Triazol-3-yl)Thio)Acetamide] | 18.6 ± 0.5 | 20.5 ± 7.11 | 21 ± 3.13 | 24 ± 6.12 | 74.2 ± 13.2 | 87.3 ± 2.09 | 88 ± 1.44 | 39.1 (≈ 95.7 µM) | 88 to 90 | – | – | –
Cc1cccc(C)c1NC(=O)CSc1nnc(C(C)c2ccc(CC(C)C)cc2)n1C (stereo not shown) [Compound 7f, N-(2,6-Dimethylphenyl)-2-((5-(1-(4-Isobutylphenyl)Ethyl)-4-Methyl-4H-1,2,4-Triazol-3-yl)Thio)Acetamide] | 8.4 ± 4.54 | 19.6 ± 4.07 | 34 ± 2.47 | 85.9 ± 0.3 | 86.57 ± 0.56 | 87.7 ± 1.34 | 88.36 ± 0.31 | 16.8 (≈ 38.4 µM) | 150 to 152 | – | – | –
CNC(=O)c1cc(Oc2ccc(NC(=O)Nc3ccc(Cl)c(C(F)(F)F)c3)cc2)ccn1 [Sorafenib, reference compound] | – | – | – | – | – | – | – | 5.97 (≈ 12.8 µM) | – | 38–49% | – | –
Triton-X-100 [reference compound] | – | – | – | – | – | – | – | – | – | – | 100 ± 0.0 | 100
